Experiments:
Format in all cases: physicochemical
[1] = Vitamin B12 stability in dedicated formulations (Batches 1 to 4); conditions: aqueous formulation, optimized conditions (oxygen content, pH, sterilization method)
Method: Table 16 provides for the various batches which were prepared for testing the stability of vitamin B12 in each setting.
For Batches 1 to 3, concentrated emulsions (40%) were diluted with a factor of 8. The vitamin bulk was used to dilute the emulsion from 40% to 5%. The pH was adjusted at 5.9 with a citrate buffer for Batch 1 and a phosphate buffer for Batch 2. An adjustment to pH 6.5 was performed for Batch 3 with HCl. The final volume was provided by adding Milli-Q water. In case of Batches 2 and 3, EDTA and PVP K17 were added before filling up to the final volume. The emulsions were filtered with a 4.5 μm filter before filling. Flushing of the solutions using N2 was performed before starting the filling of each batch. The Batches were manufactured under exclusion of light and oxygen. The dissolved oxygen was measured at the beginning of the filling to ensure it remains <1.0 ppm. The headspace volume was set as small as possible (≤10 mL) and the filling volume limits was 100 mL per monobag, ±2 mL. To avoid any risk of vitamin degradation, an aluminum overpouch was used to protect each monobag. An oxygen absorber was placed between primary bag and overpouch. Seals were inspected before sterilization rack loading. Four samples per Batch were kept unsterilized for Batches 1 through 4. […]

[2] = Impact of pH on the stability of vitamin B12; conditions: 6 months at 40° C.
[3] = Vitamin B12 stability in mixed micelle solutions; conditions: both mixed micelle solutions (Vit A, Vit B); steam or water spray sterilization
Method: For testing the stability of vitamin B12 in formulation as they are typically used in parenteral nutrition, a 35% glucose solution, a 14.2% amino acid formulation such as found, for example, in Olimel N9E (Baxter), and a 20% lipid emulsion such as found in Clinoleic 20% (Baxter) were supplemented with different vitamin combinations which always included vitamin B12. KCl was added into the glucose solution to understand if it has an effect on the stability of vitamin B12. Vitamin B1 was introduced as thiamin HCl. Ascorbyl palmitate was added to the lipid emulsion formulation as a stabilizing agent due to its antioxidant properties. In addition, two separate micellar solutions (“Vit A” and “Vit B”, see Table 9) comprising certain vitamins to be assessed with regard to degradation (B3, B6, B8, B9, B12, C) but formulated with different excipients as micellization agents were tested for vitamin B12 stability. Vit A consisted of a solution of mixed micelles with ascorbyl palmitate as a potential stability enhancer. […]
Accordingly, mixed micelles solutions having smaller volumes (25 ml or 50 ml, see Table 9) were produced according to known methods. […] The mixed micelles solutions from Table 5 were then sterilized according to Cycles 1, 2, 3 and 4 as described before and the degradation of vitamin B12 during sterilization and subsequent storage was monitored as described before.

cobalamin [Batch B12]
stability of vitamin B12 in Batch 4 [1]: remains stable up to T7M40 °C | vitamin B12 (cyanocobalamin plus hydroxocobalamin) recovered ([2]; Batch 1: 5% olive oil emulsion, pH 7.0, C0=40 min): 53.8% | vitamin B12 (cyanocobalamin plus hydroxocobalamin) recovered ([2]; Batch 2: 5% olive oil emulsion, pH 5.9, C0=80 min): 138% | degradation after sterilization and subsequent storage [3]: almost complete degradation
